US7354711B2, “Methods for inhibiting immunostimulatory DNA associated responses” (University of Iowa Research Foundation, priority 1997, dated 2008)

Tested on: WEHI 231 cells
Test: Inhibition of CpG-ODN 1760 protection against α-sIgM-induced inhibition of [3H] thymidine uptake
Format: cell-based, mouse
Settings: for Fold: activity expressed as a fraction of activity of chloroquine / Activity: -log10 of the concentration (M) required for half maximal inhibition of CpG-ODN effect on [3H] thymidine uptake in the presence of α-sIgM: Table 2, 4-aminoquinolines; for Activity: -log10 of the concentration (M) required for half maximal inhibition of CpG-ODN effect on [3H] thymidine uptake in the presence of α-sIgM / Activity,-log10 (concentration (M) for half maximal inhibition of CpG-ODN effect on [3H] thymidine uptake in the presence of α-sIgM): WEHI 231 cells; for vs. Chloroquine, fold / Activity,-log10 (concentration (M) for half maximal inhibition of CpG-ODN effect on [3H] thymidine uptake in the presence of α-sIgM): Table 3, 9-aminoacridines
Protocol: The assay of [^3H] Thymidine incorporation was carried out as follows. WEHI 231 cells (200 μL at 2×10^5/milliliter, in duplicate or triplicate) were incubated in a 96-well plate (Costar, Cambridge Mass.). Additions were made as indicated. After incubating for 16 hours, 0.5 μCi [methyl-^3H] thymidine (2 Ci/millimole, DuPont NEN, Boston Mass.) was added to each well, and the cells were incubated for another 4 hours. Cellular DNA was then captured onto glass fiber filters (Whatman 934AH) using a cell harvester (Brandel, Gaithersberg Md.). The filters were dried, placed into plastic scintillation vials with 10 milliliters of scintillation cocktail (EconoSafe, Research Products International, Mount Prospect Ill.), and counted in a liquid scintillation counter (Beckman LS-3133 T). The ^3H recovered on the filter was expressed as a fraction of the ^3H added.
Referring to experiments summarized in FIG. 1, WEHI 231 cells (ca. 2×10^5 per milliliter) were incubated for 16 hours at 37° C. with 10 μgrams/milliliter α-sIgM, 6 μgrams/milliliter ODN 1760, and the indicated concentration of the compound. After 16 hours, 0.5 μCi [^3H] thymidine was added. After 4 more hours incubation, the cellular DNA was harvested onto glass fiber filters. The dry filters were counted in a liquid scintillation counter.
Each experimental point was the mean of at least duplicate measurements.
Referring to the experiments summarized in FIG. 3, 10 μgrams/milliliter α-sIgM and the indicated concentrations of ODN 1760 and quinacrine were added simultaneously to WEHI 231 cells. Thymidine incorporation was estimated at 16 hours as described for Example 1.
Referring to the experiments summarized in FIG. 4, WEHI 231 cells were incubated with α-sIgM and ODN 1760. At times thereafter 0.1 μM quinacrine was added (data shown in the left three bars). Cells were incubated with 10 μgrams/milliliter (α-sIgM and ODN 1760 (6 μgrams/milliliter, phosphorothioate or a phosphodiester ODN with the same sequence as 1760 (PD ODN) (30 μM at time 0 hours and 8 hours; data represented in right six bars in FIG. 4). [^3H] thymidine incorporation was estimated at 16 hours.
The symbol — indicates no change. Me and Et indicate —CH3 and —CH2CH3 respectively. Aromatic substituents are in the para position except as indicated. The activity is —log10 of the concentration (M) required for half maximal inhibition of CpG-ODN effect on [^3H] thymidine uptake in the presence of α-sIgM.

C=C[C@H]1C[N@@]2CC[C@H]1C[C@@H]2[C@@H](O)c1ccnc2ccc(OC)cc12 [Quinidine, quinidine, reference compound]
Effect on CpG-ODN action (FIG. 1) (at concentrations less than 10 μM): little effect

CCN(CC)Cc1cc(Nc2ccnc3cc(Cl)ccc23)ccc1O [amodiaquine, reference compound]
Inhibition of the CpG-ODN effect (FIG. 1) (at nanomolar concentrations, 10 μg/mL α-sIgM, 6 μg/mL ODN 1760): completely inhibited

CCN(CC)CCCC(C)Nc1c(C)cnc2cc(Cl)ccc12 (stereo not shown) [compound 1]
Fold: activity expressed as a fraction of activity of chloroquine: 0.55 fold
Activity: -log10 of the concentration (M) required for half maximal inhibition of CpG-ODN effect on [3H] thymidine uptake in the presence of α-sIgM: 6.70

CCN(CC)CCCC(C)Nc1ccnc2cc(C)ccc12 (stereo not shown) [compound 3]
Fold: activity expressed as a fraction of activity of chloroquine: 0.16 fold
Activity: -log10 of the concentration (M) required for half maximal inhibition of CpG-ODN effect on [3H] thymidine uptake in the presence of α-sIgM: 6.16

CCN(CC)CCCC(C)Nc1ccnc2cc(Br)ccc12 (stereo not shown) [compound 4]
Fold: activity expressed as a fraction of activity of chloroquine: 0.72 fold
Activity: -log10 of the concentration (M) required for half maximal inhibition of CpG-ODN effect on [3H] thymidine uptake in the presence of α-sIgM: 6.82

CCN(CC)CCC(CNc1ccnc2cc(Cl)ccc12)c1ccccc1 (stereo not shown) [compound 7]
Fold: activity expressed as a fraction of activity of chloroquine: 1.38 fold
Activity: -log10 of the concentration (M) required for half maximal inhibition of CpG-ODN effect on [3H] thymidine uptake in the presence of α-sIgM: 7.10

CC[N+](C)(CC)CCCC(C)Nc1ccnc2cc(Cl)ccc12 (stereo not shown) [compound 8]
Fold: activity expressed as a fraction of activity of chloroquine: 0.02 fold
Activity: -log10 of the concentration (M) required for half maximal inhibition of CpG-ODN effect on [3H] thymidine uptake in the presence of α-sIgM: 5.18

CCN(CC)CCCC(C)Nc1ccnc2cccc(Cl)c12 (stereo not shown) [compound 9]
Fold: activity expressed as a fraction of activity of chloroquine: 0.76 fold
Activity: -log10 of the concentration (M) required for half maximal inhibition of CpG-ODN effect on [3H] thymidine uptake in the presence of α-sIgM: 6.84

CN(C)CCCCNc1ccnc2cc(Cl)ccc12 [compound 10]
Fold: activity expressed as a fraction of activity of chloroquine: 0.72 fold
Activity: -log10 of the concentration (M) required for half maximal inhibition of CpG-ODN effect on [3H] thymidine uptake in the presence of α-sIgM: 6.82

CCN(CC)CCCC(C)Nc1ccnc2cc(Cl)ccc12 (stereo not shown) [compound 11]
Activity: -log10 of the concentration (M) required for half maximal inhibition of CpG-ODN effect on [3H] thymidine uptake in the presence of α-sIgM: 6.56

CCN(CC)CCCC(C)Nc1c(-c2ccccc2)cnc2cc(Cl)ccc12 (stereo not shown) [compound 12]
Fold: activity expressed as a fraction of activity of chloroquine: 0.69 fold
Activity: -log10 of the concentration (M) required for half maximal inhibition of CpG-ODN effect on [3H] thymidine uptake in the presence of α-sIgM: 6.80

CCN(CC)CCCC(C)Nc1ccnc2cc(F)ccc12 (stereo not shown) [compound 13]
Fold: activity expressed as a fraction of activity of chloroquine: 0.26 fold
Activity: -log10 of the concentration (M) required for half maximal inhibition of CpG-ODN effect on [3H] thymidine uptake in the presence of α-sIgM: 6.38

CCN(CC)CCCC(C)Nc1ccnc2cc(OC)ccc12 (stereo not shown) [compound 14]
Fold: activity expressed as a fraction of activity of chloroquine: 0.17 fold
Activity: -log10 of the concentration (M) required for half maximal inhibition of CpG-ODN effect on [3H] thymidine uptake in the presence of α-sIgM: 6.20

CCN(CC)CCCC(C)Nc1ccnc2cc(Cl)ccc12 (stereo not shown) [compound 15]
Activity: -log10 of the concentration (M) required for half maximal inhibition of CpG-ODN effect on [3H] thymidine uptake in the presence of α-sIgM: 6.96

CCN(CC)CCCC(Nc1c2ccc(Cl)cc2nc2ccc(OC)cc12)c1ccc(F)cc1 (stereo not shown) [compound 23]
vs. Chloroquine, fold: 2.57 fold
Activity,-log10 (concentration (M) for half maximal inhibition of CpG-ODN effect on [3H] thymidine uptake in the presence of α-sIgM): 7.37

CCN(CC)CCCC(Nc1c2ccc(Cl)cc2nc2ccc(OC)cc12)c1cccnc1 (stereo not shown) [compound 24]
vs. Chloroquine, fold: 3.63 fold
Activity,-log10 (concentration (M) for half maximal inhibition of CpG-ODN effect on [3H] thymidine uptake in the presence of α-sIgM): 7.52

CCN(CC)CCCC(Nc1c2ccc(Cl)cc2nc2ccc(OC)cc12)c1ccccc1 (stereo not shown) [compound 25]
vs. Chloroquine, fold: 5.75 fold
Activity,-log10 (concentration (M) for half maximal inhibition of CpG-ODN effect on [3H] thymidine uptake in the presence of α-sIgM): 7.72

CCN(CC)CCCC(C)Nc1c2ccc(Cl)cc2nc2cc(OC)c(OC)cc12 (stereo not shown) [compound 26]
vs. Chloroquine, fold: 10.72 fold
Activity,-log10 (concentration (M) for half maximal inhibition of CpG-ODN effect on [3H] thymidine uptake in the presence of α-sIgM): 7.99

CCN(CC)CCCC(Nc1c2ccc(Cl)cc2nc2ccc(OC)cc12)c1cccs1 (stereo not shown) [compound 27]
vs. Chloroquine, fold: 1.82 fold
Activity,-log10 (concentration (M) for half maximal inhibition of CpG-ODN effect on [3H] thymidine uptake in the presence of α-sIgM): 7.22
